From PubChem BioAssay AID2060512 (Molecular Pharmacology Branch, DTP, NCI, 2025)

System: 186277-243-T-J2-PDC complex spheroid viability
Assay: Anticancer human tumor 186277-243-T-J2-PDC patient-derived colon adenocarcinoma cell line growth inhibition [GQUAD]
Conditions: for IC50: curve of first compound; for viability, T/C: stronger effect = lower value
Procedure, shortened: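 Multi-cell-type spheroids of tumor cells with HUVEC and mesenchymal stem cells, treated with drug combinations. Concentrations descend in half-log steps from near clinical Cmax, or from 10 microM where Cmax is unknown; viability read-out.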

[1] = second compound 0.0316 µM, first compound 0.0316 µM
[2] = second compound 0.0316 µM, first compound 0.316 µM
[3] = second compound 0.1 µM, first compound 0.0316 µM
[4] = second compound 0.1 µM, first compound 0.316 µM
[5] = second compound 0.316 µM, first compound 0.0316 µM
[6] = second compound 0.316 µM, first compound 0.316 µM
[7] = second compound 1 µM, first compound 0.0316 µM
[8] = second compound 1 µM, first compound 0.316 µM
[9] = second compound 3.16 µM, first compound 0.0316 µM
[10] = second compound 3.16 µM, first compound 0.316 µM
[11] = second compound 10 µM, first compound 0.0316 µM
[12] = second compound 10 µM, first compound 0.316 µM
[13] = second compound 0.0316 µM, first compound 0.1 µM
[14] = second compound 0.0316 µM, first compound 1 µM
[15] = second compound 0.0316 µM, first compound 3.16 µM
[16] = second compound 0.0316 µM, first compound 10 µM
[17] = second compound 0.1 µM, first compound 0.1 µM
[18] = second compound 0.1 µM, first compound 1 µM
[19] = second compound 0.1 µM, first compound 3.16 µM
[20] = second compound 0.1 µM, first compound 10 µM
[21] = second compound 0.316 µM, first compound 0.1 µM
[22] = second compound 0.316 µM, first compound 1 µM
[23] = second compound 0.316 µM, first compound 3.16 µM
[24] = second compound 0.316 µM, first compound 10 µM
[25] = second compound 1 µM, first compound 0.1 µM
[26] = second compound 1 µM, first compound 1 µM
[27] = second compound 1 µM, first compound 3.16 µM
[28] = second compound 1 µM, first compound 10 µM
[29] = second compound 3.16 µM, first compound 0.1 µM
[30] = second compound 3.16 µM, first compound 1 µM
[31] = second compound 3.16 µM, first compound 3.16 µM
[32] = second compound 3.16 µM, first compound 10 µM
[33] = second compound 10 µM, first compound 0.1 µM
[34] = second compound 10 µM, first compound 1 µM
[35] = second compound 10 µM, first compound 3.16 µM
[36] = second compound 10 µM, first compound 10 µM
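Also: spheroids exposed to drugs for 7 days.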
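For viability, T/C in this document: 100% = DMSO vehicle control viability.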

`CCc1c2c(nc3ccc(O)cc13)-c1cc3c(c(=O)n1C2)COC(=O)[C@]3(O)CC` + Cc1[nH]c2ccc(F)cc2c1-c1nc2c3cccnc3c3ncccc3c2[nH]1 gave an IC50 (second compound 0.0316 µM) of 13 nM, an IC50 (second compound 0.1 µM) of 13.1 nM and an IC50 (second compound 0.316 µM) of 10.3 nM. The IC50 (second compound 1 µM) was 11.3 nM, the IC50 (second compound 3.16 µM) was 7.39 nM and the IC50 (second compound 10 µM) was 15.7 nM. For the same molecule, the viability, T/C (second compound 0.0316 µM, first compound 0.000999 µM) was 99.6%, the viability, T/C (second compound 0.0316 µM, first compound 0.00316 µM) was 71.6% and the viability, T/C (second compound 0.0316 µM, first compound 0.00999 µM) was 62.5%. It also gave a viability, T/C [1] of 29.9%, a viability, T/C (second compound 0.0316 µM, first compound 0.0999 µM) of 25.1% and a viability, T/C [2] of 21.1%. It also gave a viability, T/C (second compound 0.1 µM, first compound 0.000999 µM) of 115%, a viability, T/C (second compound 0.1 µM, first compound 0.00316 µM) of 94.5% and a viability, T/C (second compound 0.1 µM, first compound 0.00999 µM) of 52.4%. It also gave a viability, T/C [3] of 36.5%, a viability, T/C (second compound 0.1 µM, first compound 0.0999 µM) of 21.4% and a viability, T/C [4] of 22%. The viability, T/C (second compound 0.316 µM, first compound 0.000999 µM) was 105%, the viability, T/C (second compound 0.316 µM, first compound 0.00316 µM) was 70.1% and the viability, T/C (second compound 0.316 µM, first compound 0.00999 µM) was 54.2%. The viability, T/C [5] was 33.9%, the viability, T/C (second compound 0.316 µM, first compound 0.0999 µM) was 23.7% and the viability, T/C [6] was 19.8%. It also gave a viability, T/C (second compound 1 µM, first compound 0.000999 µM) of 91.5%, a viability, T/C (second compound 1 µM, first compound 0.00316 µM) of 73.2% and a viability, T/C (second compound 1 µM, first compound 0.00999 µM) of 49.9%. The viability, T/C [7] was 37.4%, the viability, T/C (second compound 1 µM, first compound 0.0999 µM) was 25% and the viability, T/C [8] was 20.7%. The viability, T/C (second compound 3.16 µM, first compound 0.000999 µM) was 85.9%, the viability, T/C (second compound 3.16 µM, first compound 0.00316 µM) was 63.5% and the viability, T/C (second compound 3.16 µM, first compound 0.00999 µM) was 45.6%. For the same molecule, the viability, T/C [9] was 31%, the viability, T/C (second compound 3.16 µM, first compound 0.0999 µM) was 26.4% and the viability, T/C [10] was 18.7%. The viability, T/C (second compound 10 µM, first compound 0.000999 µM) was 77.2%, the viability, T/C (second compound 10 µM, first compound 0.00316 µM) was 72.2% and the viability, T/C (second compound 10 µM, first compound 0.00999 µM) was 58.8%. The viability, T/C [11] was 36.8%, the viability, T/C (second compound 10 µM, first compound 0.0999 µM) was 24.1% and the viability, T/C [12] was 23.3%.

Molecule `CC1COCCN1c1cc(-c2ccnn2C)c2ccnc(-c3ccn[nH]3)c2n1` (stereo unspecified) + CN(C)c1ccc(Nc2c3ccc(NC(=O)CCN4CCCC4)cc3nc3cc(NC(=O)CCN4CCCC4)ccc23)cc1 has an IC50 (second compound 0.0316 µM) of 51.5 nM, an IC50 (second compound 0.1 µM) of 46.4 nM and an IC50 (second compound 0.316 µM) of 50.9 nM. The IC50 (second compound 1 µM) was less than 31.6 nM, the IC50 (second compound 3.16 µM) was 40.8 nM and the IC50 (second compound 10 µM) was 32.5 nM. For the same molecule, the viability, T/C [1] was 77.7%, the viability, T/C [13] was 12.4% and the viability, T/C [2] was 6.8%. For the same molecule, the viability, T/C [14] was 5.06%, the viability, T/C [15] was 4.62% and the viability, T/C [16] was 5.21%. The viability, T/C [3] was 68.3%, the viability, T/C [17] was 13.6% and the viability, T/C [4] was 6.89%. The viability, T/C [18] was 4.08%, the viability, T/C [19] was 5.19% and the viability, T/C [20] was 5.02%. For the same molecule, the viability, T/C [5] was 76.5%, the viability, T/C [21] was 12.4% and the viability, T/C [6] was 5.74%. It also gave a viability, T/C [22] of 4.54%, a viability, T/C [23] of 5.22% and a viability, T/C [24] of 5.43%. It also gave a viability, T/C [7] of 49.3%, a viability, T/C [25] of 12.6% and a viability, T/C [8] of 6.08%. The viability, T/C [26] was 4.26%, the viability, T/C [27] was 5.15% and the viability, T/C [28] was 4.9%. The viability, T/C [9] was 60.6%, the viability, T/C [29] was 13.1% and the viability, T/C [10] was 6.06%. It also gave a viability, T/C [30] of 4.8%, a viability, T/C [31] of 4.59% and a viability, T/C [32] of 4.41%. The viability, T/C [11] was 51%, the viability, T/C [33] was 12.1% and the viability, T/C [12] was 5.91%. For the same molecule, the viability, T/C [34] was 4.1%, the viability, T/C [35] was 4.19% and the viability, T/C [36] was 4.01%.

With `CC(C)(O)C1CCC(Nc2ccc3ncc(-c4cccc(C(F)(F)F)c4)n3n2)CC1` (stereo unspecified) + CN(C)c1ccc(Nc2c3ccc(NC(=O)CCN4CCCC4)cc3nc3cc(NC(=O)CCN4CCCC4)ccc23)cc1 the IC50 (second compound 0.0316 µM) was 2700 nM, the IC50 (second compound 0.1 µM) was 4050 nM and the IC50 (second compound 0.316 µM) was 2780 nM. It also gave an IC50 (second compound 1 µM) of 5190 nM, an IC50 (second compound 3.16 µM) of 2890 nM and an IC50 (second compound 10 µM) of 3530 nM. The viability, T/C [1] was 103%, the viability, T/C [13] was 84.8% and the viability, T/C [2] was 113%. The viability, T/C [14] was 92.4%, the viability, T/C [15] was 42.7% and the viability, T/C [16] was 44%. The viability, T/C [3] was 98.8%, the viability, T/C [17] was 89.1% and the viability, T/C [4] was 91.4%. The viability, T/C [18] was 92.1%, the viability, T/C [19] was 51.6% and the viability, T/C [20] was 44.1%. For the same molecule, the viability, T/C [5] was 107%, the viability, T/C [21] was 92.7% and the viability, T/C [6] was 108%. For the same molecule, the viability, T/C [22] was 92.3%, the viability, T/C [23] was 44.9% and the viability, T/C [24] was 36%. The viability, T/C [7] was 93.1%, the viability, T/C [25] was 99.5% and the viability, T/C [8] was 85.7%. The viability, T/C [26] was 92%, the viability, T/C [27] was 56.2% and the viability, T/C [28] was 41.7%. The viability, T/C [9] was 93.1%, the viability, T/C [29] was 93.5% and the viability, T/C [10] was 108%. The viability, T/C [30] was 81.6%, the viability, T/C [31] was 48.2% and the viability, T/C [32] was 27.6%. For the same molecule, the viability, T/C [11] was 133%, the viability, T/C [33] was 107% and the viability, T/C [12] was 96.7%. It also gave a viability, T/C [34] of 98.2%, a viability, T/C [35] of 41.4% and a viability, T/C [36] of 22.8%.
